According to PubChem BioAssay (NCI):
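48-hour exposure; five concentrations; linearly interpolated endpoints. TGI marks complete inhibition of growth.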

Tests used:
Assay in all cases: NCI tumour cell line growth inhibition, 48 h
HS 578T breast = system: HS 578T breast
MDA-N = system: MDA-N
XF 498 CNS = system: XF 498 CNS
M19-MEL melanoma = system: M19-MEL melanoma
HOP-18 NSCLC = system: HOP-18 NSCLC
SN12K1 renal = system: SN12K1 renal
KM20L2 colon = system: KM20L2 colon
P388 leukemia = system: P388 leukemia
P388/ADR leukemia = system: P388/ADR leukemia

COc1ccc(C2c3cc4c(cc3OC(Nc3ccccc3)C2C)OCO4)cc1 (stereo not drawn)
TGI (HS 578T breast): > 100 µM | TGI (MDA-N): > 100 µM

CN(C)CCCNC(=O)N/N=C/c1ccccc1
TGI (XF 498 CNS): > 100 µM | TGI (M19-MEL melanoma): > 100 µM | TGI (HOP-18 NSCLC): > 100 µM

CCOC(=O)c1csc(NC(=O)CCN2CCN(C)CC2)n1
TGI (HS 578T breast): > 100 µM | TGI (MDA-N): > 100 µM

CCOC(=O)c1csc(NC(=O)CCN2CCCC2)n1
TGI (MDA-N): > 100 µM

OC(CC(O)(C(F)(F)Cl)C(F)(F)Cl)c1ccccc1 (stereo not drawn)
TGI (HS 578T breast): > 10 µM | TGI (MDA-N): > 10 µM

O=C(C(=C(I)I)c1ccccc1)c1ccccc1
TGI (HS 578T breast): 43.2 µM | TGI (MDA-N): 62.1 µM

COc1cc(N=Nc2ccc(OC)c(S(=O)(=O)O)c2)c(C)cc1N=Nc1ccc(/C=C/c2ccc(N=[N+]([O-])c3ccc(/C=C/c4ccc(N=Nc5cc(C)c(N=Nc6ccc(OC)c(S(=O)(=O)O)c6)cc5OC)cc4S(=O)(=O)O)c(S(=O)(=O)O)c3)cc2S(=O)(=O)O)c(S(=O)(=O)O)c1
TGI (XF 498 CNS): > 100 µM | TGI (SN12K1 renal): > 100 µM | TGI (KM20L2 colon): > 100 µM | TGI (M19-MEL melanoma): > 100 µM | TGI (P388 leukemia): > 100 µM | TGI (HOP-18 NSCLC): > 100 µM

CCCn1cc2c3c(cccc31)C1C=C(C)CN(C)C1C2 (stereo not drawn)
TGI (P388/ADR leukemia): 43.2 µM | TGI (SN12K1 renal): 44.1 µM | TGI (KM20L2 colon): 38.8 µM | TGI (P388 leukemia): 28.5 µM | TGI (HOP-18 NSCLC): 50.5 µM
